For data set [1], the target named is TICA0053 Fab. Kind of data set: HTRF competition binding selectivity assay, TICA0053 His-Fab. More on the design: species or system human. The settings on record: first series (Table 2), not DMSO normalised; read-out: IC50 (uM) for inhibition of biotinylated ticagrelor binding to TICA0053 his-Fab. Here is the method:
(§1) Total Binding control wells were set up which contained all of the assay components above except that 5 ul assay buffer was added in place of the test selectivity compound addition. Negative Binding control wells were set up which contained all of the assay components included in the Total Binding control wells except that 5ul assay buffer was added in place of the His-Fab addition. Test compound serial titrations were either ½ or ⅓ depending on the particular experiment and top final assay compound concentrations were optimized on a compound specific basis. The concentration of biotinylated ticagrelor and His-Fab was optimized on a Fab specific basis in separate experiments. For the four Fabs investigated at the end of the lead isolation phase (TICA0010, TICA0049, TICA0053 and TICA0072) the final assay reagent concentrations used are set out in Table 1 below:
(§2) For the two Fabs investigated at the end of the lead optimization phase (TICA0162 and TICA0212) the final assay reagent concentrations used were 5nM biotinylated ticagrelor and 1 nM His Fab in both cases. […] In order to enable subsequent normalization of data to correct for any such vehicle related effects parallel titrations of DMSO alone were included in most experiments in which the final assay DMSO concentrations mirrored those of the test compound serial dilutions. At the end of the set up procedure that assay was incubated for 3hrs at RT before being read on an Envision plate reader using a standard read protocol.
(§3) The negative ratio value used in the calculation of % Delta F was derived from the Negative Binding control wells. % Delta F values were then used to calculate % Specific Binding values according to the equation below: Specific Binding (%)={(Sample Delta F−Negative Binding Delta F)/(Total Binding Delta F−Negative Binding Delta F)}×100
(§4) For standard calculations of % Specific Binding Total Binding Delta F was taken from Total Binding control wells which contained all of the aforementioned components of the assay but without inclusion of any competing test compound.
(§5) In those experiments where DMSO normalization was applied DMSO normalised % Specific Binding was calculated essentially according to the equation above except that in this case Total Binding Delta F was taken from wells containing all of the components in the Total Binding control wells as well as DMSO at a concentration equivalent to that in the relevant sample well.

For data set [2], the target named is P2Y12 (Homo sapiens, UniProt Q9H244). The settings on record: cited from earlier work.
P2Y12, sequence (Q9H244 whole entry): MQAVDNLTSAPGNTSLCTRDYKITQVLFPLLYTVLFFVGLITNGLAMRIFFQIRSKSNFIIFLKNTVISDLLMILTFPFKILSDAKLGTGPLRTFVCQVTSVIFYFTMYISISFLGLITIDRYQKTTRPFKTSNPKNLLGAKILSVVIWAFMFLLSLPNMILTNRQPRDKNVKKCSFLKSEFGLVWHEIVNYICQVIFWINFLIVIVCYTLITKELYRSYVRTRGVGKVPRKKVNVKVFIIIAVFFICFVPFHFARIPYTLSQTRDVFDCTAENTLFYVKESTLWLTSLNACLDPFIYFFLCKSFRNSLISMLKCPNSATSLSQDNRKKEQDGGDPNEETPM
The target in data set [3] is TICA0010 Fab. Kind of data set: HTRF competition binding selectivity assay, TICA0010 His-Fab. More on the design: species or system human. To be noted: first series (Table 2), not DMSO normalised; read-out: IC50 (uM) for inhibition of biotinylated ticagrelor binding to TICA00l0 his-Fab. As to the method: as §1, §2, §3, §4, §5
For data set [4] the following is noted: cited from earlier work.
Data set [5] addresses TICA0212 Fab. Kind of data set: HTRF competition binding selectivity assay, TICA0212 His-Fab. More on the design: species or system human. To be noted: Table 7, DMSO normalised; 5 nM biotinylated ticagrelor, 1 nM His Fab; read-out: IC50 (uM) for inhibition of biotinylated ticagrelor binding to TICA0212 Fab. Here is the method: as §1
For the two Fabs investigated at the end of the lead optimization phase (TICA0162 and TICA0212) the final assay reagent concentrations used were 5nM biotinylated ticagrelor and 1 nM His Fab in both cases. […] At the end of the set up procedure that assay was incubated for 3hrs at RT before being read on an Envision plate reader using a standard read protocol. […]

For data set [6], the target named is TICA0162 Fab. Kind of data set: HTRF competition binding selectivity assay, TICA0162 His-Fab. Set-up: species or system human. To be noted: Table 7, DMSO normalised; 5 nM biotinylated ticagrelor, 1 nM His Fab; read-out: IC50 (uM) for inhibition of biotinylated ticagrelor binding to TICA0162 Fab. As to the method: as §1
as §2, with “protocol. […]” for “protocol.”
as §5

For data set [7], the target named is TICA0072 Fab. Kind of data set: HTRF competition binding selectivity assay, TICA0072 His-Fab. More on the design: species or system human. The settings on record: second series (Table 3), DMSO normalised; read-out: IC50 in competition binding selectivity studies, TICA0072. As to the method: as §1, §2, §3, §4, §5
(§6) In a second series of experiments further selectivity data was generated for TICA0049 and TICA0072 Fabs in which a subset of four of the twelve compounds listed in FIG. 4 were retested along with ticagrelor, TAM and TIM and several adenosine related compounds. Here, in a refinement to the earlier investigations in Table 2, experiments were designed in order to enable normalisation of percent specific binding values to correct for any non-specific vehicle related effects due to DMSO. Example plotted data from this second series of experiments is shown in FIG. 5A-F along with tabulated IC50 values in Table 3.

Data set [8] addresses TICA0049 Fab. Kind of data set: HTRF competition binding selectivity assay, TICA0049 His-Fab. Set-up: species or system human. The settings on record: second series (Table 3), DMSO normalised; read-out: IC50 in competition binding selectivity studies, TICA0049. Here is the method:
as §1, §2, §3, §4, §5, §6

Data set [9] can be described thus: Total plasma concentration of ticagrelor and TAM (LC-MS/MS). The class given is in vivo, mice. To be noted: Example 12. As to the method: Blood samples were collected in tubes with EDTA anticoagulant and centrifuged for 5 min at 10000× g at room temperature to prepare plasma. The plasma concentration of ticagrelor and TAM were determined by protein precipitation and liquid chromatography with tandem mass spectrometry (LC-MS/MS) as described in published method [Sillén H., et al., J Chromatogr B Analyt Technol Biomed Life Sci 2010; 878: 2299-306] with the following deviations. Plasma, 50 μL, was protein precipitated with 180 μl internal standard (D7-ZD6140) in acetonitrile. The liquid chromatographic system and mass spectrometer was an Acquity Ultra Performance LC coupled to a Xevo TQ-S mass spectrometer from Waters. Chromatographic separation was achieved on an Aquity UPLC® BEH C18 column (2.1×50 mm, particle size 1.7 um). Negative electrospray ionization was utilized. Eluent A was water with 10 mmol/L ammonium acetate, pH5 and eluent B was acetonitrile with 10 mmol/L ammonium acetate. Injection volume was 1 to 5 μL and the analytical gradient started with 4% B, increasing to 95% in 1.5 min, remaining until 2.3 min, before returning to initial conditions within 2.4 min followed by 0.3 min re-equilibration. No quality control samples were used in the analysis. The lower limit of quantification (LLOQ) was 0.005 μmol/L and the calibration range was 0.005 to 15.0 μM.
The total plasma concentrations of ticagrelor and TAM in presence of TICA0212/MEDI2452 were determined by adding 1% formic acid (FA: Sample, 1:5) followed by protein precipitation and LC-MS/MS as described above. Formic acid was added to the sample to facilitate dissociation of ticagrelor and TICA0212/MEDI2452.

Data set [10] addresses TICA0159 IgG binding to biotinylated ticagrelor. Kind of data set: Second generation HTRF epitope competition assay. As to the method: Purified parent TICA0072 (scFv or Fab) was used as a benchmark in all experiments such that improvements in IC50 measured with optimized variants (scFv or Fab) could be expressed as fold improvements over parent TICA0072. Total Binding Control Wells contained all assay components except that 5 ul assay buffer was added in place of the purified scFv or Fab sample. Negative Binding control wells contained all of the components of the Total Binding control wells except that 5 ul of assay buffer was added in place of the TICA0072 IgG.
In both single point HTS and multipoint IC50 profiling versions of the assay. plates were incubated for 3 hrs at RT before being read on an Envision plate reader using a standard HTRF read protocol in which samples are excited at 337 nm and time resolved fluorescence emission is measured at both 620 nm and 665 nM.
Raw 665 nm and 620 nm counts were used to calculate Delta F (%) and % Specific Binding according to the equations described earlier in Assays 1 and 4, respectively. For multipoint secondary profiling experiments IC50 values were determined using Graphpad Prism software using sigmoidal dose response (variable slope) curve fitting (4 parameter logistic equation).
This assay was used only in multipoint IC50 profiling format (as opposed to HTS format) and was performed essentially identically to the method given in Assay 5 (above) for multipoint IC50 profiling of purified Fab variants in the parent TICA0072 IgG based epitope competition assay. The only difference being that TICA0159 IgG was used in place of TICA0072 IgG at the appropriate point in the assay set up but at the same 16nM final assay concentration. In all other respects this assay was performed exactly as described above in the multipoint secondary profiling version for purified Fab.

Data set [11] can be described thus: HTRF HTS of periplasmic scFv, Assay 3 versus Assay 1. Type of data set: binding. The settings on record: 30 nM biotinylated ticagrelor, 50-fold excess (1500 nM) unmodified ticagrelor. The source says: Using known techniques, a human scFv phage display library was used to generate scFv antibodies, and specific scFvs were isolated from the library in a series of repeated selection cycles on biotinylated ticagrelor with deselection on biotinylated adenosine, essentially as described in Lloyd et al 2009 PEDS 22: 159-168, incorporated herein by reference. A number of individual clones from the round 2 and round 3 selection outputs were selected, seFvs were expressed in the bacterial periplasm and screened for specificity in three parallel biochemical assays. […]
Assays 1, 2, and 3 were performed using the same general techniques and strategy. […] HTRF® (homogeneous time resolved fluorescence) is based upon the principle of TR-FRET (time resolved fluorescence resonance energy transfer). […] Provided the donor and acceptor fluorophores are in sufficiently close proximity (approx. <10 nm), the excitation of the Europium cryptate donor (337 nm) results in a transfer of energy to the XL^665 acceptor which in turn emits a fluorescence signal at 665 nm. […]
Raw 665 nm and 620 nm counts were first converted into 665 nm/620 nm ratio values and subsequently results were expressed as Delta F (%) values. Delta F was calculated according to the following equation: Delta F (%)={((sample 665/620 ratio)−(negative 665/620) ratio))/(negative 665/620 ratio)}×100 […]

Bounds are passed on as bounds.

`CCCSc1nc(N[C@@H]2C[C@H]2c2ccc(F)c(F)c2)c2nnn([C@@H]3C[C@H](O)[C@@H](O)[C@H]3O)c2n1` [TAM]: the IC50 was determined as 0.134 µM in data set [1]; 0.124 µM in [3]; 0.031 µM in data set [5]; 0.032 µM in data set [6]; 483 nM in data set [7]; 366 nM in [8]. Also, in [2], the P2Y12 antagonist activity result is listed as “equally effective”. Moreover, the circulating half-life in data set [4] (human, in vivo) was 12 h. In addition, in data set [4] (patients on BRILINTA/BRILIQUE), the “concentration as % of the parent ticagrelor concentration” value is 30-40%. In addition, in data set [9] (end of ticagrelor infusion 300 μg/kg/min 20 min, mice), the “mean total plasma concentration” value was 0.3 µM. Further, in data set [9] (vehicle treated mice, t=30 minutes), the “mean total plasma concentration at time of tail cut” value turned out to be 0.6 µM.

B1: TICA0072: parent anti-ticagrelor/TAM antibody; VH SEQ ID NO:32, VL SEQ ID NO:37 (antibody, listed as Homo sapiens, V domains shown)
VH: QVQLQESGAEVKKPGSSVRVSCKASGGTFDSYSIHWVRQAPGQGLEWMGGIIPAFGTLSSAQDFQARVTISADKSTSTAYMELSGLRSEDTAVYYCARGSHLYDFWSASHPPNDALAIWGQGTLVTVSS
VL: QSVVTQPPSVSAAPGQKVTISCSGSNSDIGNNYVSWYQQLPGTAPKLLIYDNNKRPSGIPDRFSGSKSGTSATLAITGLQAGDEADYYCGTWDISLSAGLFGGGTKVTVL
In turn, B1 returned a concentration for half-maximal inhibition (IC50) in [10] (Fab, 16 nM TICA0159 IgG, 1 nM biotinylated ticagrelor) of 1710 nM. Moreover, the “Fold Improved” value in data set [10] (IC50 relative to parent TICA0072 Fab) is 0. For the same molecule, the “% inhibition of binding observed in Assay 3 versus Assay 1” value in data set [11] is on record as over 90%.

(Values after patent US12391768B2, “Antibodies to ticagrelor and methods of use” (MEDIMMUNE LIMITED, priority 2014, dated 2025).)
